Assay results as given in ChEMBL document CHEMBL5360578, “Design, synthesis and evaluation of novel pyrrole-hydroxybutenolide hybrids as promising antiplasmodial and anti-inflammatory agents” (Eur J Med Chem, 2023).
pIC50: −log10 of the molar value. Active and inactive are the calls of the source. The rule behind the calls is not given here.

Key:
[1] = Stability in simulated intestinal fluid assessed as compound remaining at pH 6.8 measured upto 120 mins by LC-MS analysis; type: ADME; settings: read-out: Stability
[2] = AUC in fasted Swiss mouse at 50 mg/kg, po measured upto 48 hrs by LC-MS/MS analysis; type: ADME, organism-based; set-up: time < 48 hrs, dose 50 mg/kg, route po; settings: in vivo
THP-1 [3] = assay: Cytotoxicity against LPS-stimulated human THP-1 cells assessed as cell viability at 10 uM incubated for 12 hrs followed by LPS treatment measured after 4 hrs by PI staining based flow cytometry; type: functional; settings: time 16.0 hrs
[4] = Stability in mouse plasma assessed as compound remaining at 10 uM measured upto 120 mins by LC-MS analysis; type: ADME, cell-free; settings: read-out: Stability
[5] = Stability in simulated physiological fluid assessed as compound remaining at pH 7.4 measured upto 120 mins by LC-MS analysis; type: physicochemical; settings: read-out: Stability
[6] = Tmax in fasted Swiss mouse at 50 mg/kg, po measured upto 48 hrs by LC-MS/MS analysis; type: ADME, organism-based; settings: in vivo
Plasmodium falciparum [7] = assay: Antimalarial activity against asynchronous chloroquine-resistant Plasmodium falciparum K1 assessed as parasite growth inhibition infected in erythrocytes incubated for 72 hrs by SYBR green dye based assay; type: functional, organism-based; settings: K1, 72 h
Plasmodium yoelii [8] = assay: Antimalarial activity against chloroquine-resistant Plasmodium yoelii N67 infected in Swiss mouse assessed as parasite growth suppression at 100 mg/kg/day, po for 4 days measured on day 7 relative to control; type: functional; settings: time 7 day
[9] = Toxicity in Swiss mouse infected with chloroquine-resistant Plasmodium yoelii N67 assessed as mean survival time at 100 mg/kg/day, po for 4 days (reference value: 7.2 +/- 1.3 day); type: organism-based; settings: in vivo, 96 h, time 4 day
THP-1 [10] = assay: Downregulation of LPS-induced JNK1/2 phosphorylation in human THP-1 cells at 10 uM incubated for 60 mins followed by LPS treatment 90 mins by […]; type: functional, cell-based; settings: time 150.0 min
[11] = Volume of distribution in fasted Swiss mouse at 50 mg/kg, po measured upto 48 hrs by LC-MS/MS analysis; type: ADME, organism-based; settings: in vivo
HEK-293T [12] = assay: Antiinflammatory activity against HEK293T cells assessed as fold increase in TNFalpha-induced NF-kappaB activity at 10 uM incubated for 1 hr followed by TNFalpha treatment for 5 hrs by luciferase based assay (reference value: 17.1); type: functional, Homo sapiens
[13] = MRT in fasted Swiss mouse at 50 mg/kg, po measured upto 48 hrs by LC-MS/MS analysis; type: ADME, organism-based; settings: in vivo
[14] = Cmax in fasted Swiss mouse at 50 mg/kg, po measured upto 48 hrs by LC-MS/MS analysis; type: ADME, organism-based; set-up: time < 48 hrs, dose 50 mg/kg, route po; settings: in vivo
THP-1 [15] = assay: Downregulation of LPS-induced ERK1/2 phosphorylation in human THP-1 cells at 10 uM incubated for 60 mins followed by LPS treatment 90 mins by […]; type: functional, cell-based; settings: time 150.0 min
[16] = Half life in fasted Swiss mouse at 50 mg/kg, po measured upto 48 hrs by LC-MS/MS analysis; type: ADME, organism-based; settings: in vivo
[17] = Stability in simulated gastric fluid assessed as compound remaining at pH 1.2 measured upto 120 mins by LC-MS analysis; type: ADME; settings: read-out: Stability
[18] = Clearance in fasted Swiss mouse at 50 mg/kg, po measured upto 48 hrs by LC-MS/MS analysis; type: ADME, organism-based; settings: in vivo
Plasmodium yoelii [19] = assay: Antimalarial activity against chloroquine-resistant Plasmodium yoelii N67 infected in Swiss mouse assessed as parasite growth suppression at 100 mg/kg/day, po for 4 days measured on day 4 relative to control; type: functional; settings: time 4 day
Mus musculus [20] = assay: Antiinflammatory activity in Swiss albino mouse assessed as inhibition of carrageenan-induced paw edema at 50 mg/kg,po pretreated for 1 hr followed by carrageenan administration measured after 6 hrs relative to control; type: functional; settings: time 7 hrs
Mus musculus [21] = assay: Antiinflammatory activity in Swiss albino mouse assessed as inhibition of carrageenan-induced paw edema at 50 mg/kg,po pretreated for 1 hr followed by carrageenan administration measured after 4 hrs relative to control; type: functional; settings: time 5 hrs
Mus musculus [22] = assay: Antiinflammatory activity in Swiss albino mouse assessed as inhibition of carrageenan-induced paw edema at 25 mg/kg,po pretreated for 1 hr followed by carrageenan administration measured after 4 hrs relative to control; type: functional; settings: time 5 hrs
Mus musculus [23] = assay: Antiinflammatory activity in Swiss albino mouse assessed as inhibition of carrageenan-induced paw edema at 25 mg/kg,po pretreated for 1 hr followed by carrageenan administration measured after 6 hrs relative to control; type: functional; settings: time 7 hrs
[24] = Cytotoxicity against African green monkey Vero cells incubated for 3 days by fluorescence based assay; type: toxicity, cell-based; settings: chlorocebus sabaeus, time 3 day
Plasmodium falciparum [25] = assay: Antimalarial activity against asynchronous chloroquine-sensitive Plasmodium falciparum 3D7 assessed as parasite growth inhibition infected in erythrocytes incubated for 72 hrs by SYBR green dye based assay; type: functional, organism-based; settings: 3D7, 72 h
Mus musculus [26] = assay: Antiinflammatory activity in Swiss albino mouse assessed as inhibition of carrageenan-induced paw edema at 100 mg/kg,po pretreated for 1 hr followed by carrageenan administration measured after 6 hrs relative to control; type: functional; settings: time 7 hrs
Mus musculus [27] = assay: Antiinflammatory activity in Swiss albino mouse assessed as inhibition of carrageenan-induced paw edema at 100 mg/kg,po pretreated for 1 hr followed by carrageenan administration measured after 4 hrs relative to control; type: functional; settings: time 5 hrs
THP-1 [28] = assay: Antiinflammatory activity against human THP-1 cells assessed as inhibition of LPS-induced TNFalpha level at 10 uM incubated for 12 to 14 hrs followed by compound replenishment for 1 hr and subsequent LPS treatment for 4 hrs by ELISA assay (reference value: 93.43 %); type: functional; set-up: scale not given: the % may be the effect or the level left; settings: time 17-19 hrs
Mus musculus [29] = assay: Antiinflammatory activity in Swiss albino mouse assessed as inhibition of carrageenan-induced paw edema at 200 mg/kg,po pretreated for 1 hr followed by carrageenan administration measured after 6 hrs relative to control; type: functional; settings: time 7 hrs
Mus musculus [30] = assay: Antiinflammatory activity in Swiss albino mouse assessed as inhibition of carrageenan-induced paw edema at 200 mg/kg,po pretreated for 1 hr followed by carrageenan administration measured after 4 hrs relative to control; type: functional; settings: time 5 hrs
[31] = Half life in fasted Swiss mouse at 100 mg/kg, po measured upto 48 hrs by LC-MS/MS analysis; type: ADME, organism-based; settings: in vivo
[32] = Tmax in fasted Swiss mouse at 100 mg/kg, po measured upto 48 hrs by LC-MS/MS analysis; type: ADME, organism-based; settings: in vivo
[33] = Clearance in fasted Swiss mouse at 100 mg/kg, po measured upto 48 hrs by LC-MS/MS analysis; type: ADME, organism-based; settings: in vivo
[34] = Volume of distribution in fasted Swiss mouse at 100 mg/kg, po measured upto 48 hrs by LC-MS/MS analysis; type: ADME, organism-based; settings: in vivo
[35] = Cmax in fasted Swiss mouse at 100 mg/kg, po measured upto 48 hrs by LC-MS/MS analysis; type: ADME, organism-based; set-up: time < 48 hrs, dose 100 mg/kg, route po; settings: in vivo
[36] = AUC in fasted Swiss mouse at 100 mg/kg, po measured upto 48 hrs by LC-MS/MS analysis; type: ADME, organism-based; set-up: dose 100 mg/kg, time < 48 hrs, route po; settings: in vivo
[37] = MRT in fasted Swiss mouse at 100 mg/kg, po measured upto 48 hrs by LC-MS/MS analysis; type: ADME, organism-based; settings: in vivo
HEK-293T [38] = assay: Antiinflammatory activity against HEK293T cells assessed as fold increase in TNFalpha-induced NF-kappaB activity at 1 uM incubated for 1 hr followed by TNFalpha treatment for 5 hrs by luciferase based assay (reference value: 17.1); type: functional, Homo sapiens; settings: time 6 hrs

## Cc1c(C(=O)Nc2ccccc2)c(-c2ccccc2)c(-c2ccc(C(C)C)cc2)n1CCC1=CC(=O)OC1O (stereo unspecified)
[1]
  remaining at 2 h: 89.9%
[2]
  AUC at 48 h: 178 ng·h/mL
THP-1 [3]
  Activity: Active
[4]
  remaining at 2 h, 10 µM: 81.8%
[5]
  remaining at 2 h: 89.8%
[6]
  Tmax: 0.25 h
Plasmodium falciparum [7]
  pIC50: 5.38
Plasmodium yoelii [8]
  Activity: 46.4%
[9]
  MST: 12.2 days
THP-1 [10]
  Activity: Active
[11]
  Vd: 541.85 L/kg
HEK-293T [12]
  fold change (FC): 7.4
[13]
  MRT: 0.98 h
[14]
  Cmax: 369 ng/mL
THP-1 [15]
  Activity: Active
[16]
  half-life: 1.25 h
[17]
  remaining at 2 h: 89.7%
[18]
  CL/F: 4870 mL/min/kg
Plasmodium yoelii [19]
  Activity: 69.4%
Mus musculus [20]
  inhibition in vivo at 50 mg/kg: 58%
Mus musculus [21]
  inhibition in vivo at 50 mg/kg: 60%
Mus musculus [22]
  inhibition in vivo at 25 mg/kg: 49%
Mus musculus [23]
  inhibition in vivo at 25 mg/kg: 43%
[24]
  CC50 at 72 h: 138000 nM
Plasmodium falciparum [25]
  pIC50: 6.01
Mus musculus [26]
  inhibition in vivo at 100 mg/kg: 62%
Mus musculus [27]
  inhibition in vivo at 100 mg/kg: 67%
THP-1 [28]
  Activity: 92.51%

## CC(C)Cc1ccc(C(C)C(=O)O)cc1 (stereo unspecified) [IBUPROFEN]
Mus musculus [29]
  inhibition in vivo at 200 mg/kg: 72%
Mus musculus [30]
  inhibition in vivo at 200 mg/kg: 78%

## Cc1c(C(=O)Nc2ccccc2)c(-c2ccccc2)c(-c2ccc(C(C)C)cc2)n1CC1=CC(=O)OC1O (stereo unspecified)
[31]
  half-life: 3.23 h
[1]
  remaining at 2 h: 86.2%
THP-1 [3]
  Activity: Active
[32]
  Tmax: 0.25 h
[4]
  remaining at 2 h, 10 µM: 85.8%
[5]
  remaining at 2 h: 94.8%
Plasmodium falciparum [7]
  pIC50: 5.78
Plasmodium yoelii [8]
  Activity: 100%
[9]
  MST: 23.4 days
[33]
  CL/F: 966 mL/min/kg
HEK-293T [12]
  fold change (FC): 9.4
[17]
  remaining at 2 h: 85.4%
[34]
  Vd: 270.36 L/kg
[35]
  Cmax: 415 ng/mL
Plasmodium yoelii [19]
  Activity: 77.79%
[36]
  AUC at 48 h: 1730 ng·h/mL
[37]
  MRT: 5.34 h
[24]
  CC50 at 72 h: 126000 nM
Plasmodium falciparum [25]
  pIC50: 6.02
THP-1 [28]
  Activity: 91.44%

## S=C(S)N1CCCC1 [PYRROLIDINE DITHIOCARBAMATE]
HEK-293T [38]
  fold change (FC): 2.3
